Among the data in patent US20230140983A1, “PYRIDAZINE DERIVATIVES FOR MODULATING NUCLEIC ACID SPLICING” (REMIX THERAPEUTICS INC., priority 2020, published 2023) are AC50 values, retold here.

Where two headings read alike, the source gives them in different places. Where only a bound is given, the exact number is not on record here.

The test deals with HTT. Kind of test: Splicing assay (RT-qPCR on cell lysates) monitoring HTT splice variants: AJ and CJ mRNA. The format is cell-based. The settings on record: concentration having 50% response. The protocol:
Example 69: Exemplary Splicing Assay for Monitoring Expression Levels of Splice Variants
To set up 10 uL RT-qPCR reactions, cell lysates were transferred to 384-well qPCR plates containing the master mix according to the table below. The plates were sealed, gently vortexed, and spun down before the run. The volumes were adjusted accordingly in some instances where the reaction was carried in 20 uL. The table below summarizes the components of the RT-qPCR reactions:
The RT-qPCR reaction was performed using a QuantStudio (ThermoFisher) under the following fast cycling conditions. All samples and standards were analyzed at least in duplicate. In some instances, bulk room temperature (RT) step of 5-10 minutes was completed for all plates before proceeding with qPCR. The table below summarizes the PCR cycle:
The data analysis was performed by first determining the ΔCt vs the housekeeper gene. This ΔCt was then normalized against the DMSO control (ΔΔCt) and converted to RQ (relative quantification) using the 2^(−ΔΔCt) equation. The RQ were then converted to a percentage response by arbitrarily setting an assay window of 3.5 ΔCt for HTT-CJ and an assay window of 9 ΔCt for HTT-AJ. […] The percentage response was then fitted to the 4 parametric logistic equation to evaluate the concentration dependence of compound treatment. The increase in AJ mRNA is reported as AC50 (compound concentration having 50% response in AJ increase) while the decrease in CJ mRNA levels is reported as IC50 (compound concentration having 50% response in CJ decrease).
(Real-time PCR tracks product formation cycle by cycle.)

Where [1] appears, read: Table 7, decrease in CJ mRNA, read-out: HTT CJ AC50.
Where [2] appears, read: Table 7, increase in AJ mRNA, read-out: HTT AJ AC50.
The mark [3] stands for this setting: Table 8, decrease in CJ mRNA, read-out: HTT CJ AC50.
Where [4] appears, read: Table 8, increase in AJ mRNA, read-out: HTT AJ AC50.

`CN(c1ccc(-c2ccc(-n3cccn3)c3cn[nH]c23)nn1)[C@@H]1C[C@H]2CC[C@@H](C1)N2` [Compound 105, (1R,3R,5S)—N-methyl-N-[6-[4-(pyrazol-1-yl)-1H-indazol-7-yl]pyridazin-3-yl]-8-azabicyclo[3.2.1]octan-3-amine]: the concentration at half-maximal activity (AC50) – broadly, the concentration at which the activity in the assay is half-maximal – is, setting by setting: under setting [1], under 0.5 µM; under setting [2], under 0.5 µM. Regarding `CN(c1ccc(-c2ccc(-c3cn[nH]c3)c3cn[nH]c23)nn1)C1CC(C)(C)NC(C)(C)C1` [Compound 137, N-methyl-6-[4-(1H-pyrazol-4-yl)-1H-indazol-7-yl]-N-(2,2,6,6-tetramethylpiperidin-4-yl)pyridazin-3-amine], the concentration at half-maximal activity (AC50) runs as follows: under setting [1], 0.5 to 5 µM; under setting [2], 0.5 to 5 µM. With `CN(c1ccc(-c2ccc(-n3cccn3)c3nn[nH]c23)nn1)[C@@H]1C[C@H]2CC[C@@H](C1)N2` [Compound 119, (1R,3S,5S)—N-methyl-N-[6-[7-(pyrazol-1-yl)-3H-1,2,3-benzotriazol-4-yl]pyridazin-3-yl]-8-azabicyclo[3.2.1]octan-3-amine], the AC50 is 0.5 to 5 µM under setting [1] and over 5 µM under setting [2]. In the case of `CN(c1ccc(-c2ccc(-c3cnnc(O)c3)c3scnc23)nn1)C1CC(C)(C)NC(C)(C)C1` [Compound 234], the concentration at half-maximal activity (AC50) is over 10 µM under setting [3] and over 10 µM under setting [4]. Turning to `CN(c1ccc(-c2ccc(-c3cn[nH]c3)c3cn[nH]c23)nn1)[C@@H]1C[C@H]2CC[C@@H](C1)N2` [Compound 104, (1R,3S,5S)—N-methyl-N-[6-[4-(1H-pyrazol-4-yl)-1H-indazol-7-yl]pyridazin-3-yl]-8-azabicyclo[3.2.1]octan-3-amine], the AC50 under setting [2] is under 0.5 µM. For the compound `c1n[nH]cc1-c1ccc(-c2ccc(N3CCCC4(CCNC4)C3)nn2)c2[nH]ncc12` (stereo not shown) [Compound 253], the half-maximal activity concentration (AC50) runs as follows: under setting [3], over 10 µM; under setting [4], over 10 µM. For `CN(c1ccc(-c2ccc(-c3ccn(C)c(=O)c3)c3ncsc23)nn1)C1CC(C)(C)NC(C)(C)C1` [Compound 279], the AC50 is 1 to 10 µM under setting [3] and 1 to 10 µM under setting [4]. As to `CN(c1ccc(-c2ccc(-c3cn[nH]c3)c3cc[nH]c23)nn1)[C@@H]1C[C@H]2CC[C@@H](C1)N2` [Compound 112, (1R,3S,5S)—N-methyl-N-[6-[4-(1H-pyrazol-4-yl)-1H-indol-7-yl]pyridazin-3-yl]-8-azabicyclo[3.2.1] octan-3-amine], the AC50 by setting is: under setting [1], under 0.5 µM; under setting [2], 0.5 to 5 µM. As for `c1n[nH]cc1-c1ccc(-c2ccc(N3CCC4(CCNCC4)C3)nn2)c2[nH]ncc12` [Compound 239], the concentration at half-maximal activity (AC50) reads like this: under setting [3], over 10 µM; under setting [4], over 10 µM. In the case of `CN(c1ccc(-c2ccc(-n3cccn3)c3cn[nH]c23)nn1)C1CC(C)(C)NC(C)(C)C1` [Compound 150, N-methyl-6-[4-(pyrazol-1-yl)-1H-indazol-7-yl]-N-(2,2,6,6-tetramethylpiperidin-4-yl)pyridazin-3-amine], the AC50 lay within 0.5 to 5 µM under setting [1] and 0.5 to 5 µM under setting [2].

On to `CN(c1ccc(-c2ccc(-c3cn[nH]c3)c3ncsc23)nn1)C1CC(C)(C)NC(C)(C)C1` [Compound 132, N-methyl-6-[4-(1H-pyrazol-4-yl)-1,3-benzothiazol-7-yl]-N-(2,2,6,6-tetramethylpiperidin-4-yl)pyridazin-3-amine], for which the half-maximal activity concentration (AC50) was under 0.5 µM under setting [1] and under 0.5 µM under setting [2]. `CN(c1ccc(-c2ccc(-c3c[nH]nn3)c3cn[nH]c23)nn1)[C@@H]1C[C@H]2CC[C@@H](C1)N2` [Compound 141]: the AC50 is under 0.5 µM under setting [1] and under 0.5 µM under setting [2]. Regarding `COc1cc(-c2ccc(-c3ccc(N(C)C4CC(C)(C)NC(C)(C)C4)nn3)c3ncsc23)cnn1` [Compound 233], the AC50 under setting [3] lay in the range of 0.1 to 1 µM and the AC50 under setting [4] was in the range of 0.1 to 1 µM.

As for `c1nc2c(-c3cn[nH]c3)ccc(-c3ccc(N4CCC45CCNC5)nn3)c2s1` (stereo not shown) [Compound 277], the concentration at half-maximal activity (AC50) by setting is: under setting [3], over 10 µM; under setting [4], over 10 µM. For `c1cc(-c2ccc(N3CCCN3)c3cn[nH]c23)nnc1N[C@@H]1C[C@H]2CC[C@@H](C1)N2` [Compound 278], the AC50 runs as follows: under setting [3], under 0.1 µM; under setting [4], 0.1 to 1 µM. In the case of `CN(c1ccc(-c2ccc(-n3cccn3)c3cn[nH]c23)nn1)C1CCNCC1` [Compound 264], the AC50 was over 10 µM under setting [3] and over 10 µM under setting [4]. As for `CN1C[C@@H]2CN(c3ccc(-c4ccc(-c5cn[nH]c5)c5cn[nH]c45)nn3)C[C@@H]2C1` [Compound 255], the concentration at half-maximal activity (AC50) runs as follows: under setting [3], over 10 µM; under setting [4], over 10 µM.

On to `COc1cc(-c2ccc(-c3ccc(N(C)C4CC(C)(C)NC(C)(C)C4)nn3)c3scnc23)ccn1` [Compound 280], for which the AC50 under setting [3] was 0.1 to 1 µM and the AC50 under setting [4] fell in the range of 0.1 to 1 µM. Consider `c1nc2c(-c3cn[nH]c3)ccc(-c3ccc(N4CCC5(CCN5)C4)nn3)c2s1` (stereo not shown) [Compound 265, 7-(6-{1,6-diazaspiro[3.4]octan-6-yl}pyridazin-3-yl)-4-(1H-pyrazol-4-yl)-1,3-benzothiazole], for which the AC50 was over 10 µM under setting [3] and over 10 µM under setting [4].

As for `CCN(c1ccc(-c2ccc(-c3cn[nH]c3)c3cn[nH]c23)nn1)C1CCNCC1` [Compound 274], the AC50 runs as follows: under setting [3], over 10 µM; under setting [4], over 10 µM. As for `C[C@@H]1C[C@H](N(C)c2ccc(-c3ccc(-n4cccn4)c4nn[nH]c34)nn2)CCN1` [Compound 117, N-methyl-N-[(2R,4R)-2-methylpiperidin-4-yl]-6-[7-(pyrazol-1-yl)-3H-1,2,3-benzotriazol-4-yl]pyridazin-3-amine], the AC50 is over 5 µM under setting [1] and over 5 µM under setting [2]. For the compound `c1n[nH]cc1-c1ccc(-c2ccc(NC3CNC3)nn2)c2[nH]ncc12` [Compound 237], the concentration at half-maximal activity (AC50) is over 10 µM under setting [3] and over 10 µM under setting [4]. For the compound `CN(c1ccc(-c2ccc(-c3cn[nH]c3)c3nn[nH]c23)nn1)[C@@H]1C[C@H]2CC[C@@H](C1)N2` [Compound 118, (1R,3S,5S)—N-methyl-N-[6-[7-(1H-pyrazol-4-yl)-3H-1,2,3-benzotriazol-4-yl]pyridazin-3-yl]-8-azabicyclo[3.2.1]octan-3-amine], the AC50 reads like this: under setting [1], 0.5 to 5 µM; under setting [2], 0.5 to 5 µM. In the case of `CN(c1cnc(-c2cc(F)c(-c3cn[nH]c3)c3cn[nH]c23)nn1)[C@@H]1C[C@H]2CC[C@@H](C1)N2` [Compound 149], the AC50 by setting is: under setting [1], under 0.5 µM; under setting [2], under 0.5 µM.

On to `c1n[nH]cc1-c1ccc(-c2ccc(N3CCNCC3)nn2)c2[nH]ncc12` [Compound 241], for which the AC50 under setting [3] was over 10 µM and the half-maximal activity concentration (AC50) under setting [4] fell in the range of 1 to 10 µM. The corresponding values for `c1nc2c(-c3cn[nH]c3)ccc(-c3ccc(N4CCC45CCCNC5)nn3)c2s1` (stereo not shown) [Compound 276] are 1 to 10 µM and 1 to 10 µM. As to `CN(c1ccc(-c2ccc(-c3cn[nH]c3)c3cn[nH]c23)nn1)[C@H]1C[C@]2(C)CC[C@](C)(C1)N2` [Compound 146, N,1,5-trimethyl-N-[6-[4-(1H-pyrazol-4-yl)-1H-indazol-7-yl]pyridazin-3-yl]-8-azabicyclo[3.2.1]octan-3-amine], the half-maximal activity concentration (AC50) is under 0.5 µM under setting [1] and under 0.5 µM under setting [2].

`c1n[nH]cc1-c1ccc(-c2ccc(N3CCCC4(CNC4)C3)nn2)c2[nH]ncc12` [Compound 251]: the AC50 under setting [3] was over 10 µM and the half-maximal activity concentration (AC50) under setting [4] is over 10 µM. Turning to `CN(c1ccc(-c2ccc(-n3cccn3)c3cc[nH]c23)nn1)[C@@H]1C[C@H]2CC[C@@H](C1)N2` [Compound 113, (1R,3R,5S)—N-methyl-N-[6-[4-(pyrazol-1-yl)-1H-indol-7-yl]pyridazin-3-yl]-8-azabicyclo[3.2.1]octan-3-amine], the half-maximal activity concentration (AC50) is 0.5 to 5 µM under setting [1] and over 5 µM under setting [2]. The matching figures for `CC1C[C@@H](N(C)c2ccc(-c3ccc(-n4cccn4)c4cc[nH]c34)nn2)CCN1` (stereo in doubt) [Compound 111, N-methyl-N-[(2R,4S)-2-methylpiperidin-4-yl]-6-[4-(pyrazol-1-yl)-1H-indol-7-yl]pyridazin-3-amine]: over 5 µM and over 5 µM. As to `C[C@H]1C[C@@H](N(C)c2ccc(-c3ccc(-c4cn[nH]c4)c4cc[nH]c34)nn2)CCN1` [Compound 108, N-methyl-N-[(2S,4S)-2-methylpiperidin-4-yl]-6-[4-(1H-pyrazol-4-yl)-1H-indol-7-yl]pyridazin-3-amine], the concentration at half-maximal activity (AC50) runs as follows: under setting [1], over 5 µM; under setting [2], over 5 µM. Consider `c1n[nH]cc1-c1ccc(-c2ccc(NC3CCNCC3)nn2)c2[nH]ncc12` [Compound 263, N-(piperidin-4-yl)-6-[4-(1H-pyrazol-4-yl)-1H-indazol-7-yl]pyridazin-3-amine hydrogen chloride], for which the AC50 runs as follows: under setting [3], over 10 µM; under setting [4], over 10 µM.

In the case of `CN(c1ccc(-c2ccc(-c3ccc(=O)n(C)c3)c3ncsc23)nn1)C1CC(C)(C)NC(C)(C)C1` [Compound 281], the half-maximal activity concentration (AC50) under setting [3] was over 10 µM and the half-maximal activity concentration (AC50) under setting [4] is over 10 µM. Turning to `[2H]C([2H])([2H])N(c1ccc(-c2ccc(-c3cn[nH]c3)c3cn[nH]c23)nn1)C1CCNCC1` [Compound 267], the half-maximal activity concentration (AC50) is over 10 µM under setting [3] and over 10 µM under setting [4].
